Values joined by “and” are separate entries in the source; they are usually repeats but may differ in a detail not shown here. Equal values may be shown once. Starred links: 1 amine or outer side, 2 acyl side, 3 side chain; linkers in the order of their positions; H or OH if unused. Non-standard residues stand in square brackets, D forms with d. Residues, ends and D or L forms follow the SMILES beside them. X3 = O=C([C@@H](N[*:1])C(O)c1ccc(O)cc1)[*:2]; X2 = CCCCCCCCCCCCNCCC(CC(=O)[*:2])N[*:1]; X1 = NC(=O)C(O)[C@H](N[*:1])C(=O)[*:2]; Dab = NCC[C@H](N)C(=O)O
Legend:
[1] = test system: Saccharomyces cerevisiae DGY6 haploid BY4741; assay: Minimum inhibitory concentration assay; type: cell-based; conditions: for fold of native compound's concentration at which completely inactive: against S. cerevisiae; for MIC: S. cerevisiae DGY6 haploid BY4741, modified CLSI M27-A3, 24 h incubation, duplicate
Method: (§1) MIC assays were performed in duplicate following a modified version of the CLSI M27-A3 protocol as previously described ([Ravichandran et al., 2019]).

[2] = test system: Saccharomyces cerevisiae cells; assay: Fluorescent microscopy and competitive binding (uptake) assay with alkyne-occidiofungin; type: cell-based; conditions: 5 min pretreatment at 1X MIC of native occidiofungin, then 1X MIC alkyne-OCF 30 min; fluorescence microscopy
Method: After 30 min, the cells were fixed then permeabilized. Click reaction was performed with azide-derivatized Alexa Fluor 488 as per the kit-supplied protocol (Click-iT EdU imaging kit; Thermo Fisher Scientific). The cells were suspended in […]® Antifade Mounting Medium and visualized with a Leica DM 6B microscope. […] The cells were then fixed, permeabilized and Click reaction was performed as previously described ([Ravichandran et al., 2019]).

[3] = HPLC percentage of water at elution (polarity); type: physicochemical; conditions: chromatographic, analytical C18 (Agilent ZORBAX ODS, 5 μm, 4.6 × 250 mm); 30-min gradient from 90 to 20% water/ACN, 0.1% TFA; UV 220 nm; used as measure of polarity
Method: A two-step procedure of reductive amination was used to introduce a primary or secondary amine onto the aldehyde analog. The first step of reaction involves the formation of an intermediate carbinol amine, which is then dehydrated and protonated to form an iminium ion. Subsequent reduction of this iminium ion with sodium borohydride produces an alkylated amine product. The aldehyde analog of occidiofungin was dissolved in DMSO at a concentration of 10 mg/ml. Three amines (undecylamine, dodecylamine, and DL-dihydrosphingosine) were used for reductive amination. Aldehyde analog (10 μl of DMSO stock solution; 100 μg) was mixed with 10-fold excess of an amino lipid (molar ratio) in 400 μl pure methanol. The sample was then incubated at room temperature for at least 16 h. Solid sodium borohydride (6 mg) was weighted on an analytical balance (Adventurer™ Pro AV114C, Ohaus Corporation, USA) and was directly transferred into the reaction mixture, mixed well, and was incubated at room temperature for 5 min. The reaction mixture was diluted to 1 ml with 50% ACN 0.1% TFA and was separated by HPLC using a 30-min gradient from 90 to 20% water/ACN on the analytical C18 column. HPLC solvents contained 0.1% TFA. Products that eluted between 50% and 30% water were collected and analyzed by electrospray ionization mass spectrometry (ESI-MS) on a ThermoFisher DecaXP ion trap mass spectrometer. The yield of each HPLC sample was quantified by comparing the peak area of each analog to the peak area of a 100 μg standard of occidiofungin. Electrospray ionization mass spectrometry (ESI-MS) experiments were performed using a Thermo Scientific Q Exactive Focus. Sample was loop injected (10 μl) and acetonitrile with 0.1% formic acid was used as a mobile phase at a flow rate of 600 μl/min. The Q Exactive Focus HESI source was operated in full MS in positive mode. The mass resolution was tuned to 70,000 FWHM at m/z 200. The spray voltage was set to 3.5 kV, and the sheath gas and auxiliary gas flow rates were set to 40 and 10 arbitrary units, respectively. The transfer capillary temperature was held at 300°C and the S-Lens RF level was set at 50 v. Exactive Series 2.11 /Xcalibur 4.2.47 software was used for data acquisition and processing. The alkyne occidiofungin (alkyne-OCF) used for fluorescent microscopy was synthesized as previously described ([Ravichandran et al., 2019]).

[4] = test system: S. cerevisiae, Candida albicans, and Candida glabrata; assay: MIC comparison with native occidiofungin over the yeasts tested; type: cell-based; conditions: against the Candida species tested and S. cerevisiae strain tested
Method: as §1

[5] = test system: Candida albicans ATCC 3147; assay: Minimum inhibitory concentration assay; type: cell-based; conditions: C. albicans ATCC 3147; modified CLSI M27-A3; 24 h incubation; duplicate
Method: as §1

[6] = test system: Candida glabrata ATCC 2001; assay: Minimum inhibitory concentration assay; type: cell-based; conditions: C. glabrata ATCC 2001; modified CLSI M27-A3; 24 h incubation; duplicate
Method: as §1

G-actin = assay: Pyrene labeled actin polymerization assay; type: biochemical; conditions: 5 μM compound; duplicate
Method: (§2) Actin polymerization and depolymerization assays were performed using the Actin polymerization biochem kit (# BK003; Cytoskeleton, Inc. Denver, CO) following the manufacturer’s instructions with some modifications. Briefly, for the polymerization assay, G-actin stock solution was made at 0.2 mg/ml instead of 0.4 mg/ml. For the depolymerization assay, F-actin stock solution was diluted nine-fold instead of five-fold. Test compounds including phalloidin, DL-dihydrosphingosine analog, and native occidiofungin were tested at a final concentration of 5 μM. The experiments were done in duplicate.

F-actin = assay: Pyrene labeled actin depolymerization assay; type: biochemical; conditions: 5 μM compound; duplicate
Method: as §2

[7] = target: T1, F-actin (rabbit skeletal muscle filamentous actin) (Oryctolagus cuniculus, UniProt P68135); set-up: method as in Ravichandran et al., 2019; conditions: co-sedimentation, published previously, ref Ravichandran et al., 2019, cited from earlier work; for Kd: read-out: Kd value for binding to F-actin
T1 construct: Purified rabbit skeletal muscle filamentous actin (AKF99); purchased Cytoskeleton Inc. (Denver, CO) AKF99; host or cells: rabbit skeletal muscle (tissue-purified)

## CCCCCCCCCCCCNCCC1CC(=O)N[C@@H](CO)C(=O)N[C@@H](C(O)c2ccc(O)cc2)C(=O)N[C@@H](CCN)C(=O)NCC(=O)N[C@@H](CC(N)=O)C(=O)N[C@@H](CO)C(=O)N[C@@H](C(O)C(N)=O)C(=O)N1 (stereo partly drawn) [Dodecylamine] (cyclo([X1][X2]S[X3][Dab]GNS))
[1]
  fold of native compound's concentration at which completely inactive: 64 fold
[2]
  effect of pretreatment on internalization of alkyne-OCF: did not interfere with the internalization of the alkyne-OCF
[3]
  percentage of water for the HPLC retention time: 47%
[4]
  fold of native occidiofungin's inhibitory concentration at which inactive: 64 fold

## DL-dihydrosphingosine
[5]
  MIC: 16 µg/mL
[6]
  MIC: 8 µg/mL
[1]
  MIC: 2 µg/mL
G-actin
  effect on actin polymerization (in words): did not interfere with polymerization or depolymerization
F-actin
  effect on actin depolymerization (in words): did not interfere with polymerization or depolymerization
[3]
  percentage of water for the HPLC retention time: 33%

## Undecylamine
[5]
  MIC: >32 µg/mL
[6]
  MIC: >8 µg/mL
[1]
  MIC: >4 µg/mL
  fold of native compound's concentration at which completely inactive: 64 fold
[3]
  percentage of water for the HPLC retention time: 50%
[4]
  fold of native occidiofungin's inhibitory concentration at which inactive: 64 fold

## occidiofungin [Native occidiofungin, reference compound]
[5]
  MIC: 0.5 µg/mL
[6]
  MIC: 0.5 µg/mL
[1]
  MIC: 0.0625 µg/mL
G-actin
  effect on actin polymerization (in words): did not interfere with polymerization or depolymerization
F-actin
  effect on actin depolymerization (in words): did not interfere with polymerization or depolymerization
[2]
  effect of pretreatment on internalization of alkyne-OCF: prevented internalization of alkyne-OCF
[3]
  percentage of water for the HPLC retention time: 48%
[7]
  saturation of binding ratio (ligand:actin monomer): more than 20 molecules of occidiofungin to one actin monomer
  Kd: 1050 nM

## phalloidin
F-actin
  effect on actin depolymerization (in words): completely blocked the depolymerization of F-actin
[7]
  Kd: ~8 nM and 8 nM

Source: paper PMC9792986, “Synthesis and characterization of semisynthetic analogs of the antifungal occidiofungin” (Frontiers in Microbiology, 2022)
